For this assay, the target named is AMP-activated protein kinase (AMPK) alpha-1/beta-1/gamma-1 (Homo sapiens, UniProt P54619+Q13131+Q9Y478). The assay is described as follows: In Vitro pAMPK1 Kinase Activation Assay: Compound effect on AMPK enzyme activation was determined in a cell-free format with a 12-point concentration curve. The ADP-Glo detection system was used to determine phosphorylation of a SAMS peptide substrate. Recombinant AMPK α1/β1/γ1 complex was pre-activated by phosphorylation with CAMKK2 followed by incubated with compound for 15 minutes prior to the SAMS phosphorylation reaction. Activity curves and EC50 values were fitted by interpolation to an ATP:ADP standard curve as indicated by the ADP-Glo manufacturer using Prism software. The format is protein-complex assay.
Sequence of AMP-activated protein kinase (AMPK) alpha-1/beta-1/gamma-1 (P54619 whole entry): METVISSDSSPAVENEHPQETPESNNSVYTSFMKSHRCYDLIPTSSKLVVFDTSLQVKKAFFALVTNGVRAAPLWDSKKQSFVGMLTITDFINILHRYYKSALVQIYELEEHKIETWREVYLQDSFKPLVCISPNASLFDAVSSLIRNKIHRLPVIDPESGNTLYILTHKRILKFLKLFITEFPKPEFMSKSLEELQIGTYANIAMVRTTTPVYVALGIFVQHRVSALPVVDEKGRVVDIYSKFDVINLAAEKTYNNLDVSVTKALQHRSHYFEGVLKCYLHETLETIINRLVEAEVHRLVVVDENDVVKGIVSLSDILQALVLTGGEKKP
Sequence of AMP-activated protein kinase (AMPK) alpha-1/beta-1/gamma-1 (Q9Y478 whole entry): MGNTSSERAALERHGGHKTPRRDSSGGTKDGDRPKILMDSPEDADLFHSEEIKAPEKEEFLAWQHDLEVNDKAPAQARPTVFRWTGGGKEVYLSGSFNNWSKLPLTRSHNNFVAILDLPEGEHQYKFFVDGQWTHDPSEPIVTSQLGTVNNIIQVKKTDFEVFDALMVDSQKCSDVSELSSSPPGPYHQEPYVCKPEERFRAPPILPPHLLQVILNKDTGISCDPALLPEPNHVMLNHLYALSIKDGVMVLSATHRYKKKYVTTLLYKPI
Sequence of AMP-activated protein kinase (AMPK) alpha-1/beta-1/gamma-1 (Q13131 whole entry): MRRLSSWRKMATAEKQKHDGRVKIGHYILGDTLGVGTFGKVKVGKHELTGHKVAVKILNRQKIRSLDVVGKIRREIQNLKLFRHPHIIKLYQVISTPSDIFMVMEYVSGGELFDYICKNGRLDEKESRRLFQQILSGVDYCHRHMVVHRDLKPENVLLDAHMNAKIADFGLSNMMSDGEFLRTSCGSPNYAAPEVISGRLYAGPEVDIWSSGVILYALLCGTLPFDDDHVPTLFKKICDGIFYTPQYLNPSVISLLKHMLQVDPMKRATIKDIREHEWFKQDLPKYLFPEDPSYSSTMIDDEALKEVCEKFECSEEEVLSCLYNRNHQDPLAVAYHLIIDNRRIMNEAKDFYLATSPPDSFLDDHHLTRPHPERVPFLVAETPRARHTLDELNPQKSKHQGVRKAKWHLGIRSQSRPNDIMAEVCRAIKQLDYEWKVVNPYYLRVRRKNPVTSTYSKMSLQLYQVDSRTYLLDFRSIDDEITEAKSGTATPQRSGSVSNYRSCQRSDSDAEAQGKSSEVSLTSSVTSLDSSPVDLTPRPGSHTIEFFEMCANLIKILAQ
Regarding `O=C(NCC[N+]12CCN(CC1)CC2)c1ccc(-c2ccc(-c3cc4nc(O[C@@H]5CO[C@H]6[C@@H]5OC[C@H]6O)[nH]c4cc3Cl)cc2)cc1`, the EC50 (as a rule, the concentration giving half of the maximal effect) is 0.76 nM.

As for `O=C(NCCC[N+]12CCN(CC1)CC2)c1ccc(-c2ccc(-c3cc4nc(O[C@@H]5CO[C@H]6[C@@H]5OC[C@H]6O)[nH]c4cc3Cl)cc2)cc1`, the EC50 was determined as 0.96 nM. Next, `OCC(CO)NCc1ccc(-c2ccc(-c3cc4nc(O[C@@H]5CO[C@H]6[C@@H]5OC[C@H]6O)[nH]c4cc3Cl)cc2)cc1`: 1.08 nM; `O=S(=O)(NCCOCCO)c1ccc(-c2ccc(-c3cc4nc(O[C@@H]5CO[C@H]6[C@@H]5OC[C@H]6O)[nH]c4cc3Cl)cc2)cc1`: 1.51 nM.
